The subject of one assay is Alternaria brassicae. The assay can be described thus: In vivo test on Alternaria brassicae (leaf spot of crucifers) on radish plants. The settings on record: for effectiveness on Alternaria brassicae: comparison compounds of WO 01/11965, 330 ppm; for pest or weed control at 330 ppm: Alternaria brassicae, dose of 330 ppm, radish plants sprayed 24 hours before contamination, grading 6 to 7 days after contamination vs control plants, read-out: good (at least 50%) or total protection. Here is the method: In Vivo Test on Alternaria brassicae (Leaf Spot of Crucifers)
(§1) The active ingredient tested is prepared by potter homogenisation in a concentrated suspension type formulation at 100 g/l. This suspension is then diluted with water to obtain the desired active material concentration.
Radish plants (Pernot variety) in starter cups, sown on a 50/50 peat soil-pozzolana substrate and grown at 18-20° C., are treated at the cotyledon stage by spraying with the aqueous suspension described above.
Plants, used as controls, are treated with an aqueous solution not containing the active material.
After 24 hours, the plants are contaminated by spraying them with an aqueous suspension of Alternaria brassicae spores (40,000 spores per cm^3). The spores are collected from a 12 to 13 days-old culture.
The contaminated radish plants are incubated for 6-7 days at about 18° C., under a humid atmosphere.
Grading is carried out 6 to 7 days after the contamination, in comparison with the control plants.

The next assay has as its system Botrytis cinerea. Description: In vivo test on Botrytis cinerea (cucumber grey mould). The settings on record: for effectiveness on Botrytis cinerea: comparison compounds of WO 01/11965, 330 ppm; for pest or weed control at 330 ppm: Botrytis cinerea, dose of 330 ppm, cucumber plants sprayed 24 hours before contamination, grading 5/7 days after contamination vs control plants, read-out: good (at least 50%) or total protection. Here is the method: In Vivo Test on Botrytis cinerea (Cucumber Grey Mould)
as §1
Cucumber plants (Marketer variety) in starter cups, sown on a 50/50 peat soil-pozzolana substrate and grown at 18-20° C., are treated at the cotyledon Z11 stage by spraying with the aqueous suspension described above. Plants, used as controls, are treated with an aqueous solution not containing the active material.
After 24 hours, the plants are contaminated by depositing drops of an aqueous suspension of Botrytis cinerea spores (150,000 spores per ml) on upper surface of the leaves. The spores are collected from a 15-day-old culture and are suspended in a nutrient solution composed of:
The contaminated cucumber plants are settled for 5/7 days in a climatic room at 15-11° C. (day/night) and at 80% relative humidity.
Grading is carried out 5/7 days after the contamination, in comparison with the control plants. Under these conditions, good (at least 50%) or total protection is observed at a dose of 330 ppm with the following compounds: 1, 2, 3, 4, 5, 6, 9, 10, 13, 18, 21, 22, 23, 25, 26, 27, 28, 29, 32, 34, 35, 38, 40, 43, 44, 45, 46, 47, 50, 51, 52, 53, 57 and 62.

Another assay concerns Pyrenophora teres. The assay can be described thus: In vivo test on Pyrenophora teres (barley net blotch). The settings on record: 288 h, dose of 330 ppm, barley plants sprayed 24 hours before contamination, grading 12 days after contamination vs control plants, read-out: good (at least 50%) or total protection. Here is the method:
In Vivo Test on Pyrenophora teres (Barley Net Blotch)
as §1
Barley plants (Express variety) in starter cups, sown on a 50/50 peat soil-pozzolana substrate and grown at 12° C., are treated at the 1-leaf stage (10 cm tall) by spraying with the aqueous suspension described above. Plants, used as controls, are treated with an aqueous solution not containing the active material.
After 24 hours, the plants are contaminated by spraying them with an aqueous suspension of Pyrenophora teres spores (12,000 spores per ml). The spores are collected from a 12-day-old culture. The contaminated barley plants are incubated for 24 hours at about 20° C. and at 100% relative humidity, and then for 12 days at 80% relative humidity.

Where only a bound is given, the exact number is not on record here.

The text below walks through data of patent US7723364B2, “N-[2-(2-pyridinyl) ethyl]benzamide compounds and their use as fungicides” (Bayer Cropscience SA, priority 2003, dated 2010).

For `CNC(=O)C(Cc1ncc(C(F)(F)F)cc1Cl)NC(=O)c1ccc(-c2ccccc2)cc1` (stereo not shown) [compound 316, N-{1-methylcarbamoyl-2-[3-chloro-5-(trifluoromethyl)-2-pyridinyl]-ethyl}-4-phenylbenzamide, reference compound], in the assay with Alternaria brassicae, the “effectiveness on Alternaria brassicae” value is on record as “poor effectiveness”. Besides, the “effectiveness on Botrytis cinerea” value in the assay with Botrytis cinerea is on record as “zero effectiveness”.

Consider `O=C(NCCc1nc(F)c(F)cc1F)c1ccccc1Cl` [Compound 48], for which the pest or weed control at 330 ppm with Pyrenophora teres was ≥ 50%.

Consider `O=C(NCCc1nc(F)c(Cl)cc1F)c1ccccc1I` [Compound 63], for which the pest or weed control at 330 ppm in the assay with Alternaria brassicae and with Pyrenophora teres was ≥ 50% in each case.

Turning to `O=C(NCCc1ccc(Cl)cn1)c1ccccc1C(F)(F)F` [Compound 20], the pest or weed control at 330 ppm with Alternaria brassicae was ≥ 50%.

As for `CC(CNC(=O)c1ccccc1C(F)(F)F)c1ncc(Cl)cc1Cl` (stereo not shown) [Compound 60], the pest or weed control at 330 ppm in the assay with Alternaria brassicae and in the assay on Pyrenophora teres was ≥ 50% throughout.

As for `CC(CNC(=O)c1cc(F)ccc1Cl)c1ccc(Cl)cn1` (stereo not shown) [Compound 7], the pest or weed control at 330 ppm in the assay on Alternaria brassicae was ≥ 50%.

For `CCNC(=O)C(Cc1ncc(C(F)(F)F)cc1Cl)NC(=O)c1cccc([N+](=O)[O-])c1` (stereo not shown) [compound 307, N-{1-ethylcarbamoyl-2-[3-chloro-5-(trifluoromethyl)-2-pyridinyl]ethyl}-3-nitrobenzamide, reference compound], in the assay with Alternaria brassicae, the “effectiveness on Alternaria brassicae” value is reported as “poor effectiveness”. Besides, the “effectiveness on Botrytis cinerea” value in the assay with Botrytis cinerea is reported as “zero effectiveness”.

Regarding `CC(CNC(=O)c1ccccc1I)c1ccc(Cl)cn1` (stereo not shown) [Compound 65], the pest or weed control at 330 ppm with Pyrenophora teres is ≥ 50%.

`O=C(NCCc1ccc(Cl)cn1)c1ccccc1I` [Compound 24]: in the assay with Alternaria brassicae, the pest or weed control at 330 ppm is ≥ 50%.

For `O=C(NCCc1nc(Cl)ccc1Cl)c1ccccc1I` [Compound 36], the pest or weed control at 330 ppm in the assay on Alternaria brassicae and with Pyrenophora teres was ≥ 50% throughout.

Consider `CNC(=O)C(Cc1ncc(C(F)(F)F)cc1Cl)NC(=O)c1ccccc1` (stereo not shown) [compound 314, N-{1-methylcarbamoyl-2-[3-chloro-5-(trifluoromethyl)-2-pyridinyl]ethyl}-benzamide, reference compound], for which the “effectiveness on Botrytis cinerea” value in the assay with Botrytis cinerea was “zero effectiveness”.

As to `CC(CNC(=O)c1ccccc1I)c1ncc(Cl)cc1Cl` (stereo not shown) [Compound 61], the pest or weed control at 330 ppm in the assay on Alternaria brassicae and in the assay with Pyrenophora teres was ≥ 50% throughout.

For `O=C(NCCc1nc(Cl)ccc1Cl)c1ccccc1C(F)F` [Compound 41], the pest or weed control at 330 ppm with Alternaria brassicae and in the assay on Pyrenophora teres was ≥ 50% each time.

For `O=C(NCCc1nc(Cl)c(Cl)cc1Cl)c1ccccc1I` [Compound 22], in the assay on Botrytis cinerea, the pest or weed control at 330 ppm was ≥ 50%.

With `O=C(NCCc1ncc(Br)cc1Cl)c1ccccc1Br` [Compound 52], the pest or weed control at 330 ppm with Alternaria brassicae, in the assay on Botrytis cinerea and in the assay with Pyrenophora teres was ≥ 50% throughout.

Turning to `O=C(NCCc1ncc(Cl)cc1F)c1ccccc1I` [Compound 21], the pest or weed control at 330 ppm in the assay on Alternaria brassicae, in the assay on Botrytis cinerea and with Pyrenophora teres was ≥ 50% throughout.

For the molecule `Cc1ccccc1C(=O)NCCc1nc(F)c(F)c(C)c1F` [Compound 49], the pest or weed control at 330 ppm in the assay on Alternaria brassicae and in the assay on Pyrenophora teres was ≥ 50% in each case.

Turning to `O=C(NCCc1nc(F)c(F)cc1F)c1ccccc1Br` [Compound 47], the pest or weed control at 330 ppm with Alternaria brassicae, with Botrytis cinerea and in the assay on Pyrenophora teres was ≥ 50% each time.

Regarding `CCNC(=O)C(Cc1ncc(C(F)(F)F)cc1Cl)NC(=O)c1ccccc1` (stereo not shown) [compound 304, N-{1-ethylcarbamoyl-2-[3-chloro-5-(trifluoromethyl)-2-pyridinyl]-ethyl}-benzamide, reference compound], the “effectiveness on Botrytis cinerea” value in the assay on Botrytis cinerea is “zero effectiveness”.

Take `O=C(NCCc1nc(F)c(Cl)cc1F)c1ccccc1C(F)(F)F` [Compound 62]: the pest or weed control at 330 ppm with Alternaria brassicae, in the assay on Botrytis cinerea and in the assay on Pyrenophora teres was ≥ 50% throughout.

As to `O=C(NCCc1ncc(Cl)cc1Cl)c1ccccc1Cl` [Compound 2], the pest or weed control at 330 ppm in the assay on Alternaria brassicae, in the assay with Botrytis cinerea and in the assay with Pyrenophora teres was ≥ 50% each time.

With `Cc1ccc(CCNC(=O)c2ccccc2I)nc1` [Compound 14, N-[2-(5-methyl-2-pyridinyl)ethyl]-2-(iodo)benzamide], in the assay on Alternaria brassicae, the pest or weed control at 330 ppm was ≥ 50%.

Take `O=C(NCCc1nc(Cl)ccc1Cl)c1ccccc1C(F)(F)F` [Compound 35]: the pest or weed control at 330 ppm in the assay with Alternaria brassicae, in the assay on Botrytis cinerea and with Pyrenophora teres was ≥ 50% in each case.

Regarding `CNC(=O)C(Cc1ncc(C(F)(F)F)cc1Cl)NC(=O)c1ccc(OC)cc1` (stereo not shown) [compound 315, N-{1-methylcarbamoyl-2-[3-chloro-5-(trifluoromethyl)-2-pyridinyl]ethyl}-4-methoxybenzamide, reference compound], in the assay on Botrytis cinerea, the “effectiveness on Botrytis cinerea” value is recorded as “zero effectiveness”.

In the case of `Cc1ccc(Cl)c(CCNC(=O)c2ccccc2C(F)(F)F)n1` [Compound 56], the pest or weed control at 330 ppm in the assay on Alternaria brassicae and in the assay with Pyrenophora teres was ≥ 50% in each case.

For the molecule `O=C(NCCc1nc(Cl)c(Cl)cc1Cl)c1ccccc1C(F)(F)F` [Compound 23], the pest or weed control at 330 ppm in the assay with Botrytis cinerea is ≥ 50%.

Take `Cc1c(F)c(F)nc(CCNC(=O)c2ccccc2C(F)(F)F)c1F` [Compound 42]: the pest or weed control at 330 ppm in the assay on Pyrenophora teres is ≥ 50%.

For `O=C(NCCc1nc(Cl)ccc1Cl)c1ccccc1Br` [Compound 37], the pest or weed control at 330 ppm in the assay on Alternaria brassicae and with Pyrenophora teres was ≥ 50% throughout.

As to `O=C(NCCc1ncc(Cl)cc1Br)c1ccccc1I` [Compound 40], the pest or weed control at 330 ppm in the assay on Alternaria brassicae, in the assay with Botrytis cinerea and in the assay with Pyrenophora teres was ≥ 50% each time.

As for `O=C(NCCc1nc(F)c(Cl)cc1Cl)c1ccccc1C(F)(F)F` [Compound 57], the pest or weed control at 330 ppm in the assay with Alternaria brassicae, with Botrytis cinerea and in the assay with Pyrenophora teres was ≥ 50% throughout.

Consider `O=C(NCCc1nc(F)c(Cl)cc1Cl)c1ccccc1Br` [Compound 58], for which the pest or weed control at 330 ppm in the assay with Alternaria brassicae and in the assay with Pyrenophora teres was ≥ 50% each time.

As for `CCNC(=O)C(Cc1ncc(C(F)(F)F)cc1Cl)NC(=O)c1ccc(Cl)cc1` (stereo not shown) [compound 306, N-{1-ethylcarbamoyl-2-[3-chloro-5-(trifluoromethyl)-2-pyridinyl]ethyl}-4-chlorobenzamide, reference compound], the “effectiveness on Botrytis cinerea” value with Botrytis cinerea is “zero effectiveness”.

In the case of `O=C(NCCc1ccc(Cl)cn1)c1ccccc1Br` [Compound 39], the pest or weed control at 330 ppm in the assay on Pyrenophora teres was ≥ 50%.

For `O=C(NCCc1ncc(Cl)cc1F)c1ccccc1C(F)F` [Compound 29], the pest or weed control at 330 ppm in the assay on Botrytis cinerea is ≥ 50%.

In the case of `CCNC(=O)C(Cc1ncc(C(F)(F)F)cc1Cl)NC(=O)c1ccccc1Br` (stereo not shown) [compound 310, N-{1-ethylcarbamoyl-2-[3-chloro-5-(trifluoromethyl)-2-pyridinyl]ethyl}-2-bromobenzamide, reference compound], in the assay on Botrytis cinerea, the “effectiveness on Botrytis cinerea” value is on record as “zero effectiveness”.

As for `O=C(NCCc1nc(F)c(Cl)cc1Cl)c1ccccc1Cl` [Compound 59], the pest or weed control at 330 ppm in the assay on Alternaria brassicae and in the assay with Pyrenophora teres was ≥ 50% in each case.

For `O=C(NCCc1nc(F)c(Cl)cc1Cl)c1ccccc1I` [Compound 34], the pest or weed control at 330 ppm in the assay with Alternaria brassicae, with Botrytis cinerea and in the assay on Pyrenophora teres was ≥ 50% in each case.
